Assay results as given in article PMC7864068, “α2-Macroglobulin-like protein 1 can conjugate and inhibit proteases through their hydroxyl groups, because of an enhanced reactivity of its thiol ester” (The Journal of Biological Chemistry, 2021).

Columns and labels:
[1] = molecular target: T1, A2M (α2-macroglobulin) (Homo sapiens, UniProt P01023, N1088H); assay: LC-MS/MS PRM of the pepsin-digested thiol ester peptide conjugate; type: biochemical; settings: covalent ester at thiol ester Gln-975; recombinant A2M activated by chymotrypsin; 200 mM glycerol, HBS pH 7.4, 37 °C
T1 construct: WT purified from plasma; N1088H recombinant from HEK293 cells (gene based on mRNA M11311), native form enriched by LRP1 depletion; tetramer; cleaved by chymotrypsin in the assay
T1 sequence (P01023 24-1474 N1088H): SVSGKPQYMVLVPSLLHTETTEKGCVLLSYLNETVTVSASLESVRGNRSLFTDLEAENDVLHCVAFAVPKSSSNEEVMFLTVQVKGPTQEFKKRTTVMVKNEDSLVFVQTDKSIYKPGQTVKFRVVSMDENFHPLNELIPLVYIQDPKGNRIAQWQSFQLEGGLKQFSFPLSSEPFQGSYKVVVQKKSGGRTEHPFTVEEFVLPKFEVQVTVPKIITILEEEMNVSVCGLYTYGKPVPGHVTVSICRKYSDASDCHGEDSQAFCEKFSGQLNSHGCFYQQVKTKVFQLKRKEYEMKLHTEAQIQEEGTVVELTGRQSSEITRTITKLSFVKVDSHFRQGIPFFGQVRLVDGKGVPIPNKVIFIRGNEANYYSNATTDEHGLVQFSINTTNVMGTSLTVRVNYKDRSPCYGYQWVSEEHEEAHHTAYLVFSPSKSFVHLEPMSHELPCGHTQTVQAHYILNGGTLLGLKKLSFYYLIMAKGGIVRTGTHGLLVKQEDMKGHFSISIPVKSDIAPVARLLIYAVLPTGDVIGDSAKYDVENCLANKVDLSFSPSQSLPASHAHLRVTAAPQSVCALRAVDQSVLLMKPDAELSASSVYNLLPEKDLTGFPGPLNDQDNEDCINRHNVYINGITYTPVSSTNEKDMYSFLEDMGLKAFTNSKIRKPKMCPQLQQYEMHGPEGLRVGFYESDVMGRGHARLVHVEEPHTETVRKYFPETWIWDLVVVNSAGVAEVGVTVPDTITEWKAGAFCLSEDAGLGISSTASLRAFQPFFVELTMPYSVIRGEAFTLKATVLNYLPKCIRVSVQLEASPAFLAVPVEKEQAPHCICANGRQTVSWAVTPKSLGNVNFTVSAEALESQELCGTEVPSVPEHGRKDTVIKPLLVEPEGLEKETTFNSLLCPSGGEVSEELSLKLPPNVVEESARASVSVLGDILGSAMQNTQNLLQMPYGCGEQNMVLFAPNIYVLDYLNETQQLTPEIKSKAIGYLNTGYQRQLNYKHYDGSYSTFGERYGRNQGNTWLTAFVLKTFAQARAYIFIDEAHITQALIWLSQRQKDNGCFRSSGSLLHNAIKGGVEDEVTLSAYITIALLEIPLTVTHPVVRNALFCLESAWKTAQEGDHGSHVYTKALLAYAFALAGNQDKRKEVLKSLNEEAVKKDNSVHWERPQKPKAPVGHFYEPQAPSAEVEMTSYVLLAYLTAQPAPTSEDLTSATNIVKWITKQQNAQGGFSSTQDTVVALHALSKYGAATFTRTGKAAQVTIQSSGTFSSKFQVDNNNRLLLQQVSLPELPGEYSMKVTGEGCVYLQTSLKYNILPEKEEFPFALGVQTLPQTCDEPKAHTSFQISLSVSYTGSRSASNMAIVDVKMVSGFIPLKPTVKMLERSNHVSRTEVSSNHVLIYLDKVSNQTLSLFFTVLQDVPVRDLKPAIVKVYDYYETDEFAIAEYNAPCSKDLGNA

[2] = molecular target: T2, A2ML1 (α2-macroglobulin-like protein 1) (Homo sapiens, UniProt A8K2U0); assay: as above; type: biochemical; settings: covalent ester at thiol ester Gln-973; A2ML1 activated by chymotrypsin; 200 mM glycerol, HBS pH 7.4, 37 °C
T2 construct: full-length recombinant, secreted by HEK293 Freestyle cells, no tag mentioned, purified by Zn IMAC, anion exchange and size exclusion; monomer; bait region cleaved by chymotrypsin in the assay
T2 sequence (A8K2U0 18-1454): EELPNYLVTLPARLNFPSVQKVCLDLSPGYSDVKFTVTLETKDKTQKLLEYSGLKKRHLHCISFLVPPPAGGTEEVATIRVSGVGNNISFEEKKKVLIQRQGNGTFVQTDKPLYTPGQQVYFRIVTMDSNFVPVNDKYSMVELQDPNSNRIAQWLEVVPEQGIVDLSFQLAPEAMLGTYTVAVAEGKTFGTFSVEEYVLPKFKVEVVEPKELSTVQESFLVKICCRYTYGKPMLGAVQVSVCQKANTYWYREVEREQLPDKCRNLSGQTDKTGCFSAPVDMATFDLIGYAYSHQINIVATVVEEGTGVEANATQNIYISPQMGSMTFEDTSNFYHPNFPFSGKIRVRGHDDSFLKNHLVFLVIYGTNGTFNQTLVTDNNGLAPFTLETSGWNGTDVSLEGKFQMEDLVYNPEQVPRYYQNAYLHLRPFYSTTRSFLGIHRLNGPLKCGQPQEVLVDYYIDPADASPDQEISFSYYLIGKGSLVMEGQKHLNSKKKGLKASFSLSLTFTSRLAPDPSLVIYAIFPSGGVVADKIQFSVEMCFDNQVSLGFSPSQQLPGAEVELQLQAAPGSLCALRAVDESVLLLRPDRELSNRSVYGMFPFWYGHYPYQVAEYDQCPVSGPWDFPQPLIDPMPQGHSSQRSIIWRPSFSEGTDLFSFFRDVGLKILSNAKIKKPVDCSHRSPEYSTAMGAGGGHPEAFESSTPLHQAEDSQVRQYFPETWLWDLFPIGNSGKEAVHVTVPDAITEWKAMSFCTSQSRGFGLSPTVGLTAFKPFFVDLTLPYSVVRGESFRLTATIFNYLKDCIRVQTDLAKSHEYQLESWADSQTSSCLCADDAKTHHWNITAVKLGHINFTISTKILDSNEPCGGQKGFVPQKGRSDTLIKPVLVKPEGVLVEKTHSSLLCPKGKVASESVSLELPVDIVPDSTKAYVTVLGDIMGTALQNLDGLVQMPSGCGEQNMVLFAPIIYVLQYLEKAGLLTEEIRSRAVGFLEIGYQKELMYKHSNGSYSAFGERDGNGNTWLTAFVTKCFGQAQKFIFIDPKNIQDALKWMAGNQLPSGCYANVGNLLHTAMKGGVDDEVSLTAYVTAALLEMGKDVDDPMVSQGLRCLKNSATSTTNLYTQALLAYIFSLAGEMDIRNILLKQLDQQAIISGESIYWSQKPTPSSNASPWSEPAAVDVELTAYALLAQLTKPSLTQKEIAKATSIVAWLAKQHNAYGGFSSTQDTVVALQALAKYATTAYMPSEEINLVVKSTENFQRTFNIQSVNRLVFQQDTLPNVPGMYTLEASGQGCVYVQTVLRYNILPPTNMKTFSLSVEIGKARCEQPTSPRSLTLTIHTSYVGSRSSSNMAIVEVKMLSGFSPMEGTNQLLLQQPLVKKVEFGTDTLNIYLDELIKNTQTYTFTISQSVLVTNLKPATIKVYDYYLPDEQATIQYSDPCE

OCC(O)CO [glycerol]
LC-MS/MS PRM of the pepsin-digested thiol ester peptide conjugate [1]: reaction products between the thiol ester and glycerol was detected for A2M N1088H
LC-MS/MS PRM of the pepsin-digested thiol ester peptide conjugate [2]: the reaction product with the hydroxyl substrate glycerol was only detected for WT A2ML1
